# Measured values reported in publication PMC9031298, “Enhanced In Vitro Antiviral Activity of Hydroxychloroquine Ionic Liquids against SARS-CoV-2” (Pharmaceutics, 2022).
# Several values for one entry are separate records, joined by “and”; a condition that tells them apart may be missing. Equal entries are not always repeated. Structures can show the parent of a compound that is named as a salt. Where two headings read alike, the source gives them in different places.
# What was measured:
# SARS-CoV-2 [1] = conditions: for EC90: read-out: EC90, inhibition of virus-induced CPE; for EC50: read-out: EC50, inhibition of virus-induced CPE; for inhibition of CPE: at 10 μM, Vero E6, 72 hpi
# Vero E6 cells [2] = assay: Cell viability assay (CellTiter-Glo), cytotoxicity; conditions: non-infected Vero E6 cells, 72 h, mean of three experiments
# [3] = Critical micelle concentration by ionic conductivity; assay type: physicochemical; conditions: 20 °C, water
# Method: The critical micelle concentrations of the HCQ-ILs with surfactant-like anions were calculated using ionic conductivity measurements. A Crison Basic 30+ Radiometer Analytical conductivity meter was used to measure the ionic conductivities (μS/cm) of surfactant solutions in a glass cell at 20 °C containing a magnetic stirrer. For this method, a known amount of Milli-Q water was placed in a thermostated glass cell and the surfactant solution of known concentration was progressively added using a micropipette under constant stirring. Each conductivity value was measured at least three times.
# The ability to form micelles of the lipophilic HCQ-ILs [DocSO3] (5) and [C12SO4] (8) was studied by ionic conductivity measurements. The inherent ability of these HCQ-ILs to self-aggregate into micelles can render adequate drug delivery properties. […] The critical micelle concentration (cmc) values, calculated by resolving both equations, are given in Table 3, alongside the cmc values for the starting halide salts (Na[DocSO3] and [C12SO4]).
# [4] = Octanol–water partition coefficient (Kow, Log P) by UV–Vis; conditions: logarithm of Kow, ca. 1 mg/mL, triplicate
# [5] = Water solubility by stepwise addition of water until visual dissolution; conditions: double-distilled water, 37 °C; for Water Solubility: visual inspection; for solubility: water, thermodynamic from solid
# Vero E6 cells [6] = system: Vero E6 cells
# SARS-CoV-2 [7] = assay: microbe, parasite or virus in culture; assay type: cell-based; conditions: for EC50 / EC90: qRT-PCR; for EC50: four experiments, read-out: EC50, inhibition of vRNA transcription; for EC90: read-out: EC90, inhibition of vRNA transcription; for inhibition of vRNA transcription: at 16.7 μM, 48 hpi
# SARS-CoV-2 [8] = assay: microbe, parasite or virus in culture; conditions: Severe acute respiratory syndrome coronavirus 2, Vero C1008, read-out: EC90, inhibition of virus-induced CPE, Vero E6 cells, 100 TCID50, 72 hpi
# SARS-CoV-2 [9] = assay: microbe, parasite or virus in culture; assay type: cell-based; conditions: for EC50 / EC90: TCID50 assay; for EC50: three experiments, read-out: EC50, inhibition of production of infectious progeny viruses; for EC90: read-out: EC90, inhibition of production of infectious progeny viruses
# [10] = Cell viability assay (CellTiter-Glo), cytotoxicity; conditions: African green monkey, Vero E6 cells (non-infected), CC50, non-infected Vero E6 cells, mean of three experiments
# [11] = cited from earlier work
# [12] = Severe acute respiratory syndrome coronavirus 2, Vero C1008, Vero E6, 48 hpi
# [13] = Vero E6 cells, 100 TCID50, 72 hpi
structure (smiles),measurement,setting,value
CCN(CCO)CCC[C@H](C)Nc1ccnc2cc(Cl)ccc12 [compound 6],EC90,SARS-CoV-2 [1],> 25 µM
same,CC50,Vero E6 cells [2],73.2 µM
"CCCCCCCCCCCCS(=O)(=O)O.CCCCCCCCCCCCS(=O)(=O)O.CCN(CCO)CCCC(C)Nc1ccnc2cc(Cl)ccc12 (centres unmarked) [compound 8, N^4-(7-chloroquinolin-4-yl)-N^1-ethyl-N^1-(2-hydroxyethyl)pentane-1,4-diaminium bis(dodecane-1-sulfonate)]",cmc,[3],4.83 µM
same,Log P,[4],1.01
same,EC50,SARS-CoV-2 [1],15.8 µM
same,EC90,SARS-CoV-2 [1],23.8 µM
same,Water Solubility,[5],<0.5 mg/mL
"CS(=O)(=O)[O-].[K+] [3a, potassium methanesulfonate]",CC50,Vero E6 cells [6],> 400 µM
"CCN(CCO)CCCC(C)Nc1ccnc2cc(Cl)ccc12 (centres unmarked) [compound 1, hydroxychloroquine sulfate, reference compound]",EC50,SARS-CoV-2 [7]; [12],18.6 µM
same,EC90,SARS-CoV-2 [7]; [12],25.1 µM
same,inhibition of vRNA transcription,SARS-CoV-2 [7],34.0%
same,EC90,SARS-CoV-2 [8],23 µM
same,EC50,SARS-CoV-2 [9]; [12],21.7 µM
same,EC90,SARS-CoV-2 [9]; [12],24.3 µM
same,Log P,[4],−2.25
same,inhibition of CPE,SARS-CoV-2 [1],lower than 20%
same,EC50,SARS-CoV-2 [1]; [13],16.5 µM
same,CC50 at 72 h,[10],214 µM
"CCCCCCCCCCCCOS(=O)(=O)[O-].[Na+] [8a, reference compound]",cmc,[3],9600 µM
same,Reference cmc (25 °C),[11],8.0 × 10^−3 [72] M
Cc1ccc(S(=O)(=O)[O-])cc1.[Na+] [7a],CC50,Vero E6 cells [6],> 400 µM
CC1(C)C2CC[C@@]1(CS(=O)(=O)O)C(=O)C2.CC1(C)C2CC[C@@]1(CS(=O)(=O)O)C(=O)C2.CCN(CCO)CCCC(C)Nc1ccnc2cc(Cl)ccc12 (centres unmarked) [compound 6],Log P,[4],−1.16
same,Water Solubility,[5],2020 mg/mL
CCCCC(CC)COC(=O)CC(C(=O)OCC(CC)CCCC)S(=O)(=O)[O-].[Na+] (centres unmarked) [5a],cmc,[3],1540 µM
same,Reference cmc (25 °C),[11],5.0 × 10^−3 [71] M
"CCCCC(CC)COC(=O)CC(C(=O)OCC(CC)CCCC)S(=O)(=O)O.CCCCC(CC)COC(=O)CC(C(=O)OCC(CC)CCCC)S(=O)(=O)O.CCN(CCO)CCCC(C)Nc1ccnc2cc(Cl)ccc12 (centres unmarked) [compound 5, N^4-(7-chloroquinolin-4-yl)-N^1-ethyl-N^1-(2-hydroxyethyl)pentane-1,4-diaminium bis(1,4-bis((2-ethylhexyl)oxy)-1,4-dioxobutane-2-sulfonate)]",cmc,[3],1.79 µM
same,Log P,[4],1.24
same,"SI (CC50/EC50), CPE inhibition",SARS-CoV-2 [1],7.8
same,EC50,SARS-CoV-2 [1],8.9 µM
same,EC90,SARS-CoV-2 [1],20.9 µM
same,Water Solubility,[5],<0.5 mg/mL
same,CC50,Vero E6 cells [2],69.8 µM
O=C([O-])[C@H](O)[C@@H](O)[C@H](O)[C@H](O)CO.[Na+] [9a],CC50,Vero E6 cells [6],> 400 µM
"CCN(CCO)CCCC(C)Nc1ccnc2cc(Cl)ccc12.Cc1ccc(S(=O)(=O)O)cc1.Cc1ccc(S(=O)(=O)O)cc1 (centres unmarked) [compound 7, N^4-(7-chloroquinolin-4-yl)-N^1-ethyl-N^1-(2-hydroxyethyl)pentane-1,4-diaminium bis(4-methylbenzenesulfonate)]",Log P,[4],−1.12
same,EC50,SARS-CoV-2 [1]; [13],15 µM
same,EC90,SARS-CoV-2 [1]; [13],21.1 µM
same,solubility,[5],1400 mg/mL
same,CC50,Vero E6 cells [2],207 µM
CCCCCCS(=O)(=O)O [4a],CC50,Vero E6 cells [6],> 400 µM
"CCN(CCO)CCCC(C)Nc1ccnc2cc(Cl)ccc12.CS(=O)(=O)O.CS(=O)(=O)O (centres unmarked) [compound 3, N^4-(7-chloroquinolin-4-yl)-N^1-ethyl-N^1-(2-hydroxyethyl)pentane-1,4-diaminium bis(methanesulfonate)]",EC50,"SARS-CoV-2 [7]; Vero E6, 48 hpi",17 µM
same,EC90,"SARS-CoV-2 [7]; Vero E6, 48 hpi",23.4 µM
same,inhibition of vRNA transcription,SARS-CoV-2 [7],48.5%
same,EC50,"SARS-CoV-2 [9]; Vero E6, 48 hpi",21.8 µM
same,EC90,"SARS-CoV-2 [9]; Vero E6, 48 hpi",24.4 µM
same,Log P,[4],−0.22
same,inhibition of CPE,SARS-CoV-2 [1],70.5%
same,EC50,SARS-CoV-2 [1]; [13],8.1 µM and 8.14 µM
same,EC90,SARS-CoV-2 [1]; [13],> 25 µM
same,solubility,[5],1800 mg/mL
same,CC50,Vero E6 cells [2],219 µM
"CCN(CCO)CCCC(C)Nc1ccnc2cc(Cl)ccc12.O=C(O)[C@@H](O)[C@H](O)[C@@H](O)[C@@H](O)CO.O=C(O)[C@@H](O)[C@H](O)[C@@H](O)[C@@H](O)CO [compound 9, N^4-(7-chloroquinolin-4-yl)-N^1-ethyl-N^1-(2-hydroxyethyl)pentane-1,4-diaminium bis((2S,3R,4S,5S)-2,3,4,5,6-pentahydroxyhexanoate)]",EC50,"SARS-CoV-2 [7]; Vero E6, 48 hpi",16.3 µM
same,EC90,"SARS-CoV-2 [7]; Vero E6, 48 hpi",23.1 µM
same,inhibition of vRNA transcription,SARS-CoV-2 [7],55.8%
same,EC50,"SARS-CoV-2 [9]; Vero E6, 48 hpi",16.9 µM
same,EC90,"SARS-CoV-2 [9]; Vero E6, 48 hpi",22.5 µM
same,inhibition of production of infectious progeny,"SARS-CoV-2 [9]; at 16.7 μM, 48 hpi",56.5%
same,Log P,[4],−1.39
same,EC50,SARS-CoV-2 [1],8.5 µM
same,EC90,SARS-CoV-2 [1],> 25 µM
same,Water Solubility,[5],1230 mg/mL
same,CC50,Vero E6 cells [2],196 µM
CC1(C)C2CC[C@@]1(CS(=O)(=O)[O-])C(=O)C2.[Na+] [6a],CC50,Vero E6 cells [6],142 µM
